Values of other authors in patent publication US12458674B2, “M13 phage based gene therapy platform” (Massachusetts Institute of Technology, priority 2021, dated 2025).

Settings: in vivo

In the case of Cn1nnc2c(C(N)=O)ncn2c1=O [temozolomide], the “CSF to plasma ratio” value is given as “about 20%”.
